Read-outs that look alike come from different tables or passages of the source.
Experiments:
[1] = test system: RS4;11 leukemia xenograft; test: Antitumor activity in RS4;11 leukemia xenograft model; format: in vivo; conditions: nude mice, oral gavage, treatment started day 11, FIG. 3
Description: (§1) The antitumor activity of Cpd. No. 6 (compound 6) was also studied in the RS4;11 leukemia xenograft model. Human RS4;11 tumor cells were injected into nude mice and treatment started on day 11 when the tumor size reached approximately 100 mm^3. Cpd. No. 6 was administered via oral gavage at indicated doses and schedules. Cpd.

[2] = Mouse weight in RS4;11 leukemia xenograft model; format: in vivo; conditions: nude mice, oral gavage, FIG. 4
Description: as §1

[3] = Pharmacokinetics in rats; conditions: rat, in vivo
Description: The pharmacokinetics of ABT-199 and representative Compounds of the Disclosure were evaluated in rats at an IV dose of 2 mg/kg and an oral dose of 20 mg/kg.

[4] = IV 2 mg/kg, read-out: AUC0-∞ (ng · h/mL) IV
[5] = oral 20 mg/kg, read-out: AUC0-∞ (ng · h/mL) PO

For `O=C(NS(=O)(=O)c1ccc(NC[C@H]2COCCO2)c([N+](=O)[O-])c1)c1ccc(N2CCN(CC3=C(c4ccc(Cl)cc4)CC4(CCC4)CC3)CC2)cc1Oc1cnc2[nH]ccc2c1` [Cpd. No. 6, (S)-N-((4-(((1,4-dioxan-2-yl)methyl)amino)-3-nitrophenyl)sulfonyl)-2-((1H-pyrrolo[2,3-b]pyridin-5-yl)oxy)-4-(4-((6-(4-chlorophenyl)spiro[3.5]non-6-en-7-yl)methyl)piperazin-1-yl)benzamide], the “Antitumor activity (tumor growth)” value [1] was “inhibits tumor growth”, the Mouse weight [2] was “does not cause weight loss” and the AUC(0-inf) [3, 4] was 2920 ng·h/mL. For the same molecule, the AUC(0-inf) [3, 5] was 13500 ng·h/mL.
Molecule `O=C(NS(=O)(=O)c1ccc(NCC2CCOCC2)c([N+](=O)[O-])c1)c1ccc(N2CCN(CC3=C(c4ccc(Cl)cc4)CC4(CCC4)CC3)CC2)cc1Oc1cnc2[nH]ccc2c1` [Cpd. No. 3, 2-((1H-pyrrolo[2,3-b]pyridin-5-yl)oxy)-4-(4-((6-(4-chlorophenyl)spiro[3.5]non-6-en-7-yl)methyl)piperazin-1-yl)-N-((3-nitro-4-(((tetrahydro-2H-pyran-4-yl)methyl)amino)phenyl)sulfonyl)benzamide] has an AUC(0-inf) [3, 4] of 2680 ng·h/mL and an AUC(0-inf) [3, 5] of 7780 ng·h/mL.
With `CC1(C)CCC(CN2CCN(c3ccc(C(=O)NS(=O)(=O)c4ccc(NCC5CCOCC5)c([N+](=O)[O-])c4)c(Oc4cnc5[nH]ccc5c4)c3)CC2)=C(c2ccc(Cl)cc2)C1` [ABT-199, Venetoclax, reference compound] the AUC(0-inf) [3, 4] was 5450 ng·h/mL and the AUC(0-inf) [3, 5] was 20800 ng·h/mL.

Source: patent US10829488B2, “N-(phenylsulfonyl)benzamides and related compounds as bcl-2 inhibitors” (THE REGENTS OF THE UNIVERSITY OF MICHIGAN, priority 2016, dated 2020)
